What was measured:
[1] = assay type: physicochemical
Description: A composition is prepared for a dilute bathing formulation of xylitol for nasal delivery. The concentration of xylitol in the solution may be 10%-60% by weight/volume. This corresponds to 10-60 grams of xylitol per 100 ml of solution. xylitol is soluble in solution up to 64.2 grams per 100 ml of solution.

[2] = system: Streptococcus pneumonia; settings: during its logarithmic growth phase; cited from earlier work

For OC[C@@H](O)[C@H](O)[C@@H](O)CO [xylitol], the soluble in solution [1] is given as “up to 64.2 grams per 100 ml of solution” and the “growth of Streptococcus pneumonia in vitro” value [2] is given as “inhibits the growth”.

Reference: US6599883B1, “Nasal delivery of xylitol” (Nastech Pharmaceutical Company, Inc., priority 1998, dated 2003)
